Values after ≈ are worked out from the molar mass of the structure shown. Like-named read-outs stand apart in the source and are kept apart here.
Experiments:
Assay type in all cases: cell-based
[1] = tested on: Trichophyton metagrophytes 530324; experiment: Antifungal Activity MIC (in medicinal field); conditions: read-out: Minimal Inhibitory Concentration (MIC)
[2] = tested on: Trichophyton interdigitale; experiment: Antifungal Activity MIC (in medicinal field); conditions: read-out: Minimal Inhibitory Concentration (MIC)
[3] = tested on: Cryptococcus neoformans Cr-1; experiment: Antifungal Activity MIC (in medicinal field); conditions: CR1, read-out: Minimal Inhibitory Concentration (MIC)
Candida albicans GA-24 = experiment: Antifungal Activity MIC (in medicinal field); conditions: GA24, read-out: Minimal Inhibitory Concentration (MIC)
[4] = tested on: Aspergillus fumigatus Saito; experiment: Antifungal Activity MIC (in medicinal field); conditions: read-out: Minimal Inhibitory Concentration (MIC)
[5] = tested on: Bacillus subtilis ATCC 6633; experiment: Minimal Inhibitory Concentration Method; conditions: ATCC6633, read-out: Minimal Inhibitory Conc.
Proteus vulgaris OX-19 = experiment: Minimal Inhibitory Concentration Method
[6] = tested on: Staphylococcus aureus 209P JC-1; experiment: Minimal Inhibitory Concentration Method; conditions: Staphylococcus aureus 209P JC-1; read-out: Minimal Inhibitory Conc.
[7] = tested on: Serratia marcescens MB-3848; experiment: Minimal Inhibitory Concentration Method
[8] = tested on: Pseudomonas cepacia M-0527; experiment: Minimal Inhibitory Concentration Method; conditions: Burkholderia cepacia, M0527, read-out: Minimal Inhibitory Conc.
[9] = tested on: Staphylococcus epidermidis ATCC 14990; experiment: Minimal Inhibitory Concentration Method; conditions: ATCC14990, read-out: Minimal Inhibitory Conc.
Escherichia coli No. 29 = experiment: Minimal Inhibitory Concentration Method; conditions: read-out: Minimal Inhibitory Conc.
Shigella dysenteriae = experiment: Minimal Inhibitory Concentration Method; conditions: read-out: Minimal Inhibitory Conc.
Salmonella typhi 0-901-W = experiment: Minimal Inhibitory Concentration Method; conditions: Salmonella enterica, read-out: Minimal Inhibitory Conc.
[10] = MB3848, Serratia marcescens MB-3848, read-out: Minimal Inhibitory Conc.
[11] = OX19, Proteus vulgaris OX-19, read-out: Minimal Inhibitory Conc.

MIC [1] [µg/mL]	MIC [2] [µg/mL]	MIC [3] [µg/mL]	MIC (Candida albicans GA-24) [µg/mL]	MIC [4] [µg/mL]	SMILES	MIC [5] [µg/mL]	MIC (Proteus vulgaris OX-19; Proteus vulgaris, OX19, read-out: Minimal Inhibitory Conc.) [µg/mL]	MIC [6] [µg/mL]	MIC [7, 10] [µg/mL]	MIC [8] [µg/mL]	MIC [9] [µg/mL]	MIC (Escherichia coli No. 29) [µg/mL]	MIC (Shigella dysenteriae) [µg/mL]	MIC (Salmonella typhi 0-901-W) [µg/mL]	MIC (Proteus vulgaris OX-19; [11]) [µg/mL]	MIC ([7]; Serratia marcescens, MB3848, read-out: Minimal Inhibitory Conc.) [µg/mL]
< 0.04	0.39 (≈ 1.1 µM)	3.13 (≈ 8.81 µM)	25 (≈ 70.4 µM)	6.25 (≈ 17.6 µM)	O=[N+]([O-])c1ccc(-c2nnn(CC#CI)n2)cc1 [Compound No. 37, 2-(1'-iodopropyn-3'-yl)-5-(p-nitrophenyl)tetrazole]											
0.78 (≈ 1.33 µM)	0.78 (≈ 1.33 µM)	6.25 (≈ 10.7 µM)	6.25 (≈ 10.7 µM)	6.25 (≈ 10.7 µM)	CCCCCCCc1nnn(CC(I)=C(I)I)n1 [Compound No. 40, 2-(2',3',3'-triiodoallyl)-5-n-heptyltetrazole]											
0.78 (≈ 1.33 µM)	≤ 0.05	100 (≈ 171 µM)	> 100	3.13 (≈ 5.34 µM)	CCCCCCCc1nnnn1CC(I)=C(I)I [Compound No. 41, 1-(2',3',3'-triiodoallyl)-5-n-heptyltetrazole]											
0.09 (≈ 0.161 µM)	0.19 (≈ 0.341 µM)	0.78 (≈ 1.4 µM)	3.13 (≈ 5.61 µM)	0.78 (≈ 1.4 µM)	CCCCCc1nnn(CC(I)=C(I)I)n1 [Compound No. 42, 2-(2',3',3'-triiodoallyl)-5-n-pentyltetrazole]											
0.09 (≈ 0.161 µM)	≤ 0.05	50 (≈ 89.6 µM)	12.5 (≈ 22.4 µM)	0.39 (≈ 0.699 µM)	CCCCCc1nnnn1CC(I)=C(I)I [Compound No. 43, 1-(2',3',3'-triiodoallyl)-5-n-pentyltetrazole]											
0.39 (≈ 0.717 µM)	0.39 (≈ 0.717 µM)	50 (≈ 91.9 µM)	50 (≈ 91.9 µM)	6.25 (≈ 11.5 µM)	CC(C)(C)c1nnn(CC(I)=C(I)I)n1 [Compound No. 44, 2-(2',3',3'-triiodoallyl)-5-tert.-butyltetrazole]											
					CC(C)(C)c1nnnn1CC(I)=C(I)I [Compound No. 45, 1-(2',3',3'-triiodoallyl)-5-tert.-butyltetrazole]	0.78 (≈ 1.43 µM)	3.13 (≈ 5.75 µM)	0.78 (≈ 1.43 µM)	12.5 (≈ 23 µM)	12.5 (≈ 23 µM)	0.2 (≈ 0.368 µM)	6.25 (≈ 11.5 µM)	3.13 (≈ 5.75 µM)	50 (≈ 91.9 µM)		
≤ 0.05	0.09 (≈ 0.17 µM)	0.78 (≈ 1.47 µM)	1.56 (≈ 2.94 µM)	0.39 (≈ 0.736 µM)	CCCc1nnn(CC(I)=C(I)I)n1 [Compound No. 46, 2-(2',3',3'-triiodoallyl)-5-n-propyltetrazole]											
≤ 0.05	0.09 (≈ 0.17 µM)	6.25 (≈ 11.8 µM)	6.25 (≈ 11.8 µM)	0.78 (≈ 1.47 µM)	CCCc1nnnn1CC(I)=C(I)I [Compound No. 47, 1-(2',3',3'-triiodoallyl)-5-n-propyltetrazole]											
6.25 (≈ 11.8 µM)	1.56 (≈ 2.94 µM)	6.25 (≈ 11.8 µM)	12.5 (≈ 23.6 µM)	12.5 (≈ 23.6 µM)	CC(C)c1nnnn1CC(I)=C(I)I [Compound No. 49, 1-(2',3',3'-triiodoallyl)-5-isopropyltetrazole]											
					IC(I)=C(I)Cn1nnnc1Cc1ccccc1 [Compound No. 59, 1-(2',3',3'-triiodoallyl)-5-benzyltetrazole]	1.56 (≈ 2.7 µM)		1.56 (≈ 2.7 µM)	3.13 (≈ 5.42 µM)	3.13 (≈ 5.42 µM)	0.2 (≈ 0.346 µM)	0.78 (≈ 1.35 µM)	0.39 (≈ 0.675 µM)	12.5 (≈ 21.6 µM)	1.56 (≈ 2.7 µM)	

SMILES	MIC [1] [µg/mL]	MIC [2] [µg/mL]	MIC [3] [µg/mL]	MIC (Candida albicans GA-24) [µg/mL]	MIC [4] [µg/mL]	MIC [5] [µg/mL]	MIC (Proteus vulgaris OX-19; Proteus vulgaris, OX19, read-out: Minimal Inhibitory Conc.) [µg/mL]	MIC [6] [µg/mL]	MIC [7, 10] [µg/mL]	MIC [8] [µg/mL]	MIC [9] [µg/mL]	MIC (Escherichia coli No. 29) [µg/mL]	MIC (Shigella dysenteriae) [µg/mL]	MIC (Salmonella typhi 0-901-W) [µg/mL]	MIC (Proteus vulgaris OX-19; [11]) [µg/mL]	MIC ([7]; Serratia marcescens, MB3848, read-out: Minimal Inhibitory Conc.) [µg/mL]
CC(C)c1nnn(CC(I)=C(I)I)n1 [Compound No. 48, 2-(2',3',3'-triiodoallyl)-5-isopropyltetrazole]	0.78 (≈ 1.47 µM)	0.78 (≈ 1.47 µM)	12.5 (≈ 23.6 µM)	12.5 (≈ 23.6 µM)	3.13 (≈ 5.91 µM)	0.39 (≈ 0.736 µM)		1.56 (≈ 2.94 µM)		6.25 (≈ 11.8 µM)	0.39 (≈ 0.736 µM)	6.25 (≈ 11.8 µM)	3.13 (≈ 5.91 µM)	12.5 (≈ 23.6 µM)	6.25 (≈ 11.8 µM)	12.5 (≈ 23.6 µM)

— patent US4647572A, “Iodoallyl and iodopropargyl substituted tetrazoles and anti-microbial compositions thereof” (Meiji Seika Kaisha, Ltd., priority 1982, dated 1987)
